For the test, the system named is Corn seeds. In words: Corn seedling growth enhancement, in-furrow application at different rates (Example 2). It counts as in vivo. As to conditions: average of 8 replications. From the text:
Ten corn seeds (Pioneer variety 33M53, treated with PONCHO® 250 Insecticide) were evenly spaced in a single, 2 cm deep, furrow in a planter box (25.5 cm by 11.5 cm) containing steam treated loam soil (pH 6.4, 4.3% organic matter. An aqueous suspension of CAPTURE® LFR Insecticide (17.5% bifenthrin) was sprayed as a T-band in-furrow application onto the uncovered seeds at a rate of 269 g ai/ha using a DeVries overhead track sprayer at a pressure of 40 psi and an application volume of 200 l/ha. The seeds were covered with soil and the planter boxes placed onto a lab cart with overhead lighting set at 14 hours on and 10 hours off and a room temperature of 21° C. Three replicate planter boxes (total of 30 seeds) were treated and three control planter boxes to which no CAPTURE® Insecticide was applied were included in the test. Each planter box was watered with 146 mL of tap water and re-watered with 50 mL of tap water along the furrow at 4 days after treatment (DAT). At four DAT there were 19 emerged seedlings in the treated planter boxes and 16 emerged seedlings in the untreated planter boxes. At five DAT all seeds had emerged and the seedlings were removed from the soil and the roots were gently rinsed in tap water to remove the soil. The seedlings were placed onto paper and the roots and shoots were measured from the seed to the tip of the tallest leaf and from the seed to the tip of the longest root and each seedling was weighed. Table 1 below summarizes the average shoot height; root length and seedling wet weight of the treated and untreated seeds.
In a manner similar to Example 1, Corn seeds were treated in-furrow with different rates of CAPTURE® LFR or test solutions of technical bifenthrin (96% purity) dissolved in acetone and diluted with distilled water containing 0.1% Tween® 20 (Polyoxylethylene-sorbitan monolaurate available from SigmaAldrich). There were 8 replications of each treatment including the untreated control. Table 2 below summarizes the average shoot height, root length and seedling weight of the treated and untreated seeds.

On to `Cc1c(COC(=O)[C@@H]2[C@H](/C=C(\Cl)C(F)(F)F)C2(C)C)cccc1-c1ccccc1` (racemic) [Technical Bifenthrin, 2-methylbiphenyl-3-ylmethyl (Z)-(1RS)-cis-3-(2-chloro-3,3,3-trifluoroprop-1-enyl)-2,2-dimethyl cyclopropanecarboxylate], for which the “Root Length” value runs as follows: (4.68 g ai/ha in-furrow) 20.8 cm; (18.75 g ai/ha in-furrow) 20.7 cm; (75 g ai/ha in-furrow) 21.5 cm; (300 g ai/ha in-furrow) 21.8 cm; (1200 g ai/ha in-furrow) 22.3 cm. Moreover, the “Seedling Weight” value by setting is: (4.68 g ai/ha in-furrow) 1.1 gm; (18.75 g ai/ha in-furrow) 1.1 gm; (75 g ai/ha in-furrow) 1.2 gm; (300 g ai/ha in-furrow) 1.1 gm; (1200 g ai/ha in-furrow) 1.2 gm. For the same molecule, the “Shoot Height” value by setting is: (4.68 g ai/ha in-furrow) 9.2 cm; (18.75 g ai/ha in-furrow) 9.5 cm; (75 g ai/ha in-furrow) 9.6 cm; (300 g ai/ha in-furrow) 9.5 cm; (1200 g ai/ha in-furrow) 9.9 cm.

Values taken from patent publication US20140342914A1, “Method of Plant Growth with Bifenthrin” (priority 2013, published 2014).
